Data as given in patent US9757393B2 (priority 2015, dated 2017).

Experiments:
[1] = system: HFD-fed C57BL/6J mice; test: Body weight, food intake and tissue weight in HFD-fed mice; format: in vivo; conditions: oral gavage daily for 4 weeks
Description: (§1) Experimental Animals: the experiments are conducted under the guidelines of the Institutional Animal Care and Use Committee of Central Taiwan University of Science and Technology. As previously described, four-week-old male C57BL/6J mice (n=63) is purchased from the National Laboratory Animal Breeding and Research Center, Ministry of Science and Technology. After 1-week of acclimatization, mice are designed to initiate the study, and the study lasts for 12 weeks. […] The CON group and high-fat control (HF) group are given with vehicle only. The low-fat diet consisted of fat 10%, whereas the high-fat diet (HFD) consisted of fat 45% (of total energy, % kcal). The compositions of the experimental diets are shown as described. At the end of the study, food is derived from the animals (from 10 p.m. to 10 a.m.). On the next day, the mice are sacrificed, and blood and tissue are collected for analysis. Livers, skeletal muscles, and white adipose tissues (WATs) (including epididymal, mesenteric and retroperitoneal WAT) are excised and weighed, and then immediately stored in a freezer at −80° C. Heparin (30 units/mL) (Sigma) is added to blood samples. Plasma samples are collected by centrifugation at 1600 g for 15 min at 4° C. within 30 min, and plasma is obtained for insulin and leptin level analysis.
Body Weight, Food Intake and Tissue Weight. Throughout the embodiment, body weight and food intake are daily recorded at the same time. Body weight gain is defined as the difference between 1 day and the next day. The pellet food is weighed and placed in a cage food container. After 24 h, the remaining food is weighed and the crumbs are collected as much as possible. Based on the difference between 1 day and the next day, the daily food intake is calculated.

[2] = system: HFD-fed C57BL/6J mice; test: Blood glucose, HbA1c, blood lipids, insulin and leptin levels in HFD-fed mice; format: in vivo; conditions: for Blood Profiles FFA / Blood Profiles HDL-C / Blood Profiles HbA1c / Blood Profiles LDL-C: oral gavage daily for 4 weeks
Description: as §1
Blood Glucose and HbA1c Levels. Blood samples (0.8 mL) are collected from the retro-orbital sinuses of fasting mice, and glucose level is measured by the glucose oxidase method (model 1500; Sidekick Glucose Analyzer; YSI Inc., Yellow Springs, Ohio, USA). Percent HbA1c is detected with a Hemoglobin A1c kit (BioSystems S.A., Barcelona, Spain). Plasma triglycerides (TG), total cholesterol (TC), free fatty acids (FFA), high-density lipoprotein cholesterol (HDL-C), and low density lipoprotein cholesterol (LDL-C) are determined using commercial assay kits (Triglycerides-E test, Cholesterol-E test, and FFA-C test, Wako Pure Chemical, Osaka, Japan; HDL-C-test and LDL-C-test, Roche Diagnostics GmbH, Indianapolis, USA) according to their instructions. A mouse insulin ELISA kit (Sibayagi, Gunma, Japan) and mouse leptin ELISA kit (Morinaga, Yokohama, Japan) are used to measure blood insulin and leptin levels, respectively.

[3] = system: HFD-fed C57BL/6J mice; test: Hepatic lipid in HFD-fed mice; format: in vivo; conditions: oral gavage daily for 4 weeks
Description: as §1
Blood Lipid and Hepatic Lipid. Hepatic lipids are extracted as previously described. Liver sample (0.375 g) is homogenized with 1 mL of distilled water for 5 min for the hepatic lipid extraction and analyzed using a triglycerides kit as used for serum lipids.

[4] = system: HFD-fed C57BL/6J mice; test: Histopathology examination of epididymal WAT and liver tissue; format: in vivo; conditions: oral gavage daily for 4 weeks
Description: as §1
A portion of the collected epididymal WAT and liver tissue is fixed with formalin (200 g/kg) neutral buffered solution and embedded in paraffin. Sections (8 μm) are cut and stained with hematoxylin and eosin. A microscope (Leica, DM2500) and Leica Digital camera (DFC-425-C) are used for microscopic examination and images taken, respectively.

[5] = system: membrane GLUT4; test: Western blotting of membrane GLUT4 in skeletal muscle; format: in vivo, C57BL/6J mice; conditions: HFD-fed mice, 10 mg/kg/day
Description: as §1
Protein extractions and immunoblots for the determination of membrane GLUT4, phospho-AMPK (Thr172), and phospho-Akt (Ser 473) proteins are carried out on frozen skeletal muscle and liver tissue from mice, which follows a previous paper. Additionally, membrane GLUT4 is carried out on frozen skeletal muscle from mice, and the total membrane fractions are collected with buffer and centrifuged as a previously described. The protein contents of membrane GLUT4, phospho-AMPK, phospho-Akt, total AMPK, and total Akt are detected by western blotting. Western blotting has been determined as described elsewhere. Subsequently, antibodies are detected using horseradish peroxidase linked to a goat anti-IgG rabbit secondary antibody and visualized using an ECL system. Membrane GLUT4, structural proteins GAPDH and β-actin are purchased from Santa Cruz Biotechnology (Santa Cruz, Calif., USA); phospho-AMPK was obtained from Abcam Inc. (Cambridge, Mass., USA); phospho-Akt, total AMPK, and total Akt are from Cell Signaling Technology, Inc. (Danver Mass., USA); the BCA protein assay kit is from Thermo Scientific (Rockford, Ill., USA); and the ECL reagent kit is from GE Healthcare BioSciences (Buckinghamshire, UK). The secondary antibody antirabbit is from Jackson ImmunoResearch Laboratories, Inc. (West Grove, Pa., USA). The density blotting is analyzed using Alpha Easy FC software (Alpha Innotech Corp., Randburg, South Africa). Structural proteins GAPDH and β-actin are obtained by stripping the nitrocellulose membrane proteins of liver and skeletal muscle, respectively.

Q: Which “Absolute Tissue Weight BAT” value ([1]; 250 mg/kg/day) does the source give for `CC(C)OC(=O)C(C)(C)Oc1ccc(C(=O)c2ccc(Cl)cc2)cc1` [Feno, fenofibrate, reference compound] here?
A: Its value is 0.142 ± 0.012 g.

Q: And the “Absolute Tissue Weight EWAT” value ([1]; 250 mg/kg/day)?
A: The value was 0.924 ± 0.069 g.

Q: What about the “Absolute Tissue Weight Liver” value ([1]; 250 mg/kg/day) of the same compound?
A: Its value is 1.046 ± 0.033 g.

Q: And the “Absolute Tissue Weight MWAT” value ([1]; 250 mg/kg/day)?
A: The value was 0.295 ± 0.009 g.

Q: And the “Absolute Tissue Weight RWAT” value ([1]; 250 mg/kg/day)?
A: Its value is 0.249 ± 0.028 g.

Q: And the “Absolute Tissue Weight Skeletal muscle” value ([1]; 250 mg/kg/day)?
A: Its value is 0.569 ± 0.069 g.

Q: What about the weight gain ([1]; 250 mg/kg/day) of the same compound?
A: The weight gain was 0.69 ± 0.63 g.

Q: And the “decrease of the circulating TG level” value ([2]; 250 mg/kg/day)?
A: Its value is 47.9%.

Q: And the “Blood Profiles FFA” value ([2]; 250 mg/kg/day)?
A: Its value is 0.94 ± 0.08 meq/L.

Q: What about the “Blood Profiles HDL-C” value ([2]; 250 mg/kg/day) of the same compound?
A: Its value is 80.3 ± 4.5 mg/dL.

Q: What about the “Blood Profiles HbA1c” value ([2]; 250 mg/kg/day) of the same compound?
A: The value was 6.4 ± 0.7 %.

Q: What about the “Blood Profiles LDL-C” value ([2]; 250 mg/kg/day) of the same compound?
A: Its value is 105.8 ± 10.4 mg/dL.

Q: And the “Liver Lipids total lipid” value ([3]; 250 mg/kg/day)?
A: Its value is 63.8 ± 4.7 mg/g.

Q: What about the “Liver Lipids triacylglycerol” value ([3]; 250 mg/kg/day) of the same compound?
A: Its value is 48.4 ± 5.6 µmol/g.

Q: What about the “average area of adipocytes (epididymal WAT)” value ([4]; 250 mg/kg/day) of the same compound?
A: The value was 4175.4±322.9 μm2.

Q: `CN(CCOc1ccc(CC2SC(=O)NC2=O)cc1)c1ccccn1` (stereo not drawn) [Rosi, rosiglitazone, reference compound] was tested. Which “Absolute Tissue Weight BAT” value ([1]; 10 mg/kg/day) did it give?
A: The value was 0.175 ± 0.018 g.

Q: And the “Absolute Tissue Weight EWAT” value ([1]; 10 mg/kg/day)?
A: The value was 0.813 ± 0.069 g.

Q: What about the “Absolute Tissue Weight Liver” value ([1]; 10 mg/kg/day) of the same compound?
A: The value was 0.816 ± 0.038 g.

Q: And the “Absolute Tissue Weight MWAT” value ([1]; 10 mg/kg/day)?
A: Its value is 0.257 ± 0.019 g.

Q: What about the “Absolute Tissue Weight RWAT” value ([1]; 10 mg/kg/day) of the same compound?
A: Its value is 0.244 ± 0.042 g.

Q: And the “Absolute Tissue Weight Skeletal muscle” value ([1]; 10 mg/kg/day)?
A: Its value is 0.737 ± 0.094 g.

Q: What about the weight gain ([1]; 10 mg/kg/day) of the same compound?
A: Its weight gain is 1.71 ± 0.56 g.

Q: What about the “Blood Profiles FFA” value ([2]; 10 mg/kg/day) of the same compound?
A: The value was 1.00 ± 0.09 meq/L.

Q: And the “Blood Profiles HDL-C” value ([2]; 10 mg/kg/day)?
A: Its value is 73.1 ± 5.8 mg/dL.

Q: And the “Blood Profiles HbA1c” value ([2]; 10 mg/kg/day)?
A: The value was 6.2 ± 0.4 %.

Q: What about the “Blood Profiles LDL-C” value ([2]; 10 mg/kg/day) of the same compound?
A: The value was 86.7 ± 7.7 mg/dL.

Q: And the “Liver Lipids total lipid” value ([3]; 10 mg/kg/day)?
A: Its value is 65.1 ± 5.3 mg/g.

Q: What about the “Liver Lipids triacylglycerol” value ([3]; 10 mg/kg/day) of the same compound?
A: Its value is 44.5 ± 3.2 µmol/g.

Q: What about the “average area of adipocytes (epididymal WAT)” value ([4]; 10 mg/kg/day) of the same compound?
A: The value was 5598.6±162.7 μm2.

Q: And the “enhancement of muscular membrane GLUT4 protein” value [5]?
A: Its value is ~2.1 fold.
